Source: publication PMC8560897, “Bioevaluation and Targeted Modification of Temporin-FL From the Skin Secretion of Dark-Spotted Frog (Pelophylax nigromaculatus)” (Frontiers in Molecular Biosciences, 2021)
No end group written: not given here.

How the values were obtained:
E. coli (NCTC 10418) = type: cell-based; conditions: for Antimicrobial activity MBC / Antimicrobial activity MIC: NCTC 10418, 18 h
Description: (§1) Antimicrobial activity was evaluated by assessing minimal inhibitory concentrations (MICs) and minimal bactericidal concentrations (MBCs). The tested microorganisms comprised three Gram-positive bacterial strains, namely S. aureus (NCTC 10788) and MRSA strains (NCTC 12493 and ATCC 43300), E. coli (NCTC 10418), which is a Gram-negative bacterial strain, and C. albicans (NCYC 1467), a yeast species. Standard microbes were cultured in Muller-Hinton Broth (MHB) and suspended to obtain 5 × 10^5 CFU/ml. Subsequently, the equal volume microorganisms solutions were treated with a 2-fold dilution of peptides, the final concentration of the peptides ranged between 512 and 1 μM. The positive control of bacteria strains S. aureus, MRSA NCTC 12493 and E. coli is 0.2 mg/ml norfloxacin, 16 μM mellitin was used as C. albicans positive control and 0.2 mg/ml vancomycin as a positive control in ATCC 43300 MRSA strains. The solutions were incubated in 96-well plates used for measuring MICs followed for 18 h. The MBC values were assessed based on observations of the colony cultured on Muller-Hinton agar (MHA). The antimicrobial assay was performed in triplicate following the procedure applied in previous studies described ([Huang et al., 2017]).

C. albicans (NCYC 1467) = type: cell-based; conditions: NCYC 1467, 18 h
Description: as §1

MRSA ATCC 43300 [1] = type: cell-based, Methicillin-resistant Staphylococcus aureus; conditions: not told
Description: The bactericidal activity of cationic peptides resulted from membrane disruption. DNA or RNA that leaked out of the cell was stained with SYTOX™ Green Nucleic Acid Stain (Invitrogen Life Technologies, Carlsbad, CA, United States). The MRSA ATCC 43300 bacterial strain was used to evaluate the membrane disruptive potency of the three peptides. The assay was performed according to the procedure described previously with some modifications ([Chen et al., 2018]). Peptides at different concentrations (4 × MIC, 2 × MIC and 1 × MIC) were incubated with the re-suspended bacterial solution at a concentration of 5 × 10^6 CFU/well in the 96-well black plate for 3 h without light. The positive control is 70% isopropanol. SYTOX green dye (the final concentration of 1%) was then added to each well, and the permeabilizing potency was measured as fluorescent intensity using a SpeactraMax i3x plate reader (Molecular Devices, CA, United States). All experiments were done in five replicates for statistical significance.

S. aureus (NCTC 10788) = type: cell-based, Staphylococcus aureus; conditions: NCTC 10788, 18 h
Description: as §1

MRSA ATCC 43300 biofilm = type: cell-based, Methicillin-resistant Staphylococcus aureus; conditions: ATCC 43300, 48 h
Description: (§2) We evaluated the antibiofilm activity of the three AMPs by applying a crystal violet staining assay following previous research with minor modifications ([Chen et al., 2018]), to determine the minimal biofilm inhibitory concentrations (MBICs) and the minimal biofilm eradication concentrations (MBECs). The tested MRSA bacterial strains (NCTC 12493 and ATCC 43300) were incubated and diluted with MHB to achieve a bacterial concentration of 5 × 10^5 CFU/ml. The peptides were undergone a 2-fold dilution and were incubated with diluted MRSA to determine MBIC values. For the MBEC assay, the diluted bacterial culture was incubated for 48 h to obtain a fully grown biofilm, which was treated with various concentrations of peptides dissolved in MHB and incubated for 24 h at 37°C. The positive control in MBIC and MBEC determination is 0.2 mg/ml vancomycin for MRSA ATCC 43300 strain and the aliquote of norfloxacin for MRSA NCTC 12493.

MRSA NCTC 12493 biofilm = type: cell-based, Methicillin-resistant Staphylococcus aureus; conditions: NCTC 12493, 48 h
Description: as §2

[2] = test system: defibrinated erythrocytes isolated from whole horse blood; type: cell-based; conditions: red cells of horse
Description: Following a previous study ([Huang et al., 2017]), we evaluated the hemolytic activity of three peptides using defibrinated erythrocytes isolated from whole horse blood (TCS Biosciences Ltd., Buckingham, United Kingdom). Phosphate-buffered saline (PBS) and 1% Triton X-100 were used as negative and positive controls, respectively, and 1% DMSO/PBS was used as the vehicle control. The HC50 and the therapeutic index (TI = HC50/the geometric mean of MICs against tested bacterial strains of peptide) were calculated to determine the therapeutic potential.

in vitro = type: cell-based; conditions: human
Description: Human keratinocyte cell line HaCaT (No.1101HUM-PUMC000373) was obtained from the National Infrastructure of Cell Line Resource (Beijing, China) and cultured in high-glucose Dulbecco’s modified Eagle medium (DMEM), containing 10% fetal bovine serum (FBS) and 1% penicillin and streptomycin (Thermo Fisher Scientific Co., Waltham, MA, United States). The grown cells were digested and quantificationally harvested in a 96-wells plate of cell density of 5 × 10^4×cells/ml. After 24 h incubation, the original medium in wells was replaced with fresh medium containing peptides with 2-fold serial dilution, the final concentrations of peptides ranging from […] to 1 μM. When the cells were treated with peptides for 24 h, the cell medium was changed into 100 μl of 10% CCK-8 solution and incubated for 4 h. The absorbance at 450 nm reflected the cell viability in each well. The growth control was cell culture without peptides and blank control was fresh DMEM without cells.

MRSA NCTC 12493 = type: cell-based, Methicillin-resistant Staphylococcus aureus; conditions: NCTC 12493, 18 h
Description: as §1

MRSA ATCC 43300 [3] = type: cell-based, Methicillin-resistant Staphylococcus aureus; conditions: ATCC 43300, 18 h
Description: as §1

[4] = test system: tested Gram-positive bacterial strains and fungi; type: cell-based; conditions: 18 h
Description: as §1

[5] = test system: MRSA (ATCC 43300) biofilm formation; experiment: Quantitative biofilm formation assay; type: cell-based, Methicillin-resistant Staphylococcus aureus
Description: Based on the previous study of quantitative biofilm formation assay ([Badmasti et al., 2015]; [Liu et al., 2020]), the crystal violet staining method with moderate modifications was applied for analyzing the capability of MRSA (ATCC 43300) forming biofilms when treated with different concentrations of peptides. Specifically, MRSA strain was cultured in MHB medium at 37°C overnight. Then the bacterial culture was subcultured in fresh MHB medium. The quantificational bacterial suspension (5 × 10^5 CFU/ml) was added into a 96-wells plate together with the tested peptides at different concentrations (2 × MBIC, 1 × MBIC, 1/2 × MBIC and 1/4 × MBIC). The MHB medium without bacteria was negative control and MRSA culture solution was the positive control. The cut-off optical density (ODc) was the mean ± deviation value of the absorbance of negative control at 595 nm. The biofilm formation ability of bacteria samples with different concentrations of peptides were divided into four groups: the negative biofilm formation (−) was the OD595nm ≤ ODc, the weak biofilm formation (+) was the ODc < OD595nm ≤ 2 × ODc, the moderate biofilm formation (++) represented the 2 × ODc < OD595nm ≤ 4 × ODc, and the strong biofilm formation (+++) indicated the OD595nm > 4 × ODc.

[6] = Circular-dichroism spectroscopy, helix content (BESTSEL); type: physicochemical; conditions: CD
Description: The physiochemical structural analysis entailed website prediction and circular-dichroism (CD) spectroscopy as described previously ([Liu et al., 2017]; [Sang et al., 2018]; [Zhou et al., 2019]). Briefly, temporin-FL and two analogues were dissolved in 10 mM NH4Ac or 10 mM NH4Ac with 50% 2,2,2-trifluoroethanol (TFE) to determine their conformation in different solutions. The 10 mM NH4Ac solution provides a pH stable buffering environment to stabilize peptides and also to prevent system noise and not interfere with CD signals. The results of the CD spectroscopy were inputted into the BESTSEL CD spectrum online analysis tool (http://bestsel.elte.hu/index.php). HeliQuest (https://heliquest.ipmc.cnrs.fr/), and I-Tasser (http://zhanglab.ccmb.med.umich.edu/I-TASSER) were respectively used to determine the helical wheels plots and to predict the 3D secondary structure.

[7] = test system: MRSA (ATCC 43300) biofilm; experiment: Scanning electron microscopy of MRSA biofilms; type: cell-based, Methicillin-resistant Staphylococcus aureus; conditions: 1 × MBEC, 24 h
Description: Silicon wafers were cut into small squares (5 mm × 5 mm) and placed at the bottom of a 24-well plate. Each well was then filled with 1 ml of sub-cultured MRSA (ATCC 43300) in MHB at a concentration of 5 × 10^5 CFU/ml and incubated at 37°C in a humid shaking incubator for 48 h to enable the formation of visible biofilms on the silicon wafers. Peptides at concentrations of 1 × MBEC and 4 × MBEC were incubated with PBS-washed MRSA biofilm for 24 h. After the incubation, the silicon wafer in each well was first washed in PBS and then fixed in 2.5% glutaraldehyde at 4°C for 4 h. The fixed biofilm was dehydrated using gradient ethanol solution (30, 50, 70, 80, 90, 95, and 100%) at 10-min intervals. The air-dried biofilm samples were coated with gold film using a LEICA-EM-ACE600 sputter coater instrument (Leica, Germany) and transferred to the field emission scanning electron microscopy (FESEM) system (ZEISS-SUPRA55, Germany) operating at 5 kV to observe the morphology of the peptide-treated biofilm.

Row | Substance | Antimicrobial activity MBC (E. coli (NCTC 10418)) [µM] | Antimicrobial activity MIC (E. coli (NCTC 10418)) [µM] | Antimicrobial activity MBC (C. albicans (NCYC 1467)) [µM] | Antimicrobial activity MIC (C. albicans (NCYC 1467)) [µM] | Membrane permeability ranking among the three peptides (MRSA ATCC 43300 [1]) | Membrane permeabilization, SYTOX Green fluorescent intensity (MRSA ATCC 43300 [1]) | Antimicrobial activity MBC (S. aureus (NCTC 10788)) [µM] | Antimicrobial activity MIC (S. aureus (NCTC 10788)) [µM] | Antibiofilm activity MBEC (MRSA ATCC 43300 biofilm) [µM] | Antibiofilm activity MBIC (MRSA ATCC 43300 biofilm) [µM] | Antibiofilm activity MBEC (MRSA NCTC 12493 biofilm) [µM] | Antibiofilm activity MBIC (MRSA NCTC 12493 biofilm) [µM] | Hemolysis effect HC50 [2] [µM] | IC50 at 24 h (in vitro) [µM] | Antimicrobial activity MBC (MRSA NCTC 12493) [µM] | Antimicrobial activity MIC (MRSA NCTC 12493) [µM] | Antimicrobial activity MBC (MRSA ATCC 43300 [3]) [µM] | Antimicrobial activity MIC (MRSA ATCC 43300 [3]) [µM] | other results
1 | FIPLVSGLFKLL-NH2 [Temporin-FLa, FIPLVSGLFKLL-NH2] | 128 | 128 | 32 | 8 | greatest permeability | highest fluorescent intensity | 8 | 4 | 8 | 4 | 32 | 8 | 74.02 | 46.6 | 16 | 4 | 8 | 4 | –
2 | FIPVSGLFKLL-NH2 [Temporin-FLb, FIPVSGLFKLL-NH2] | 128 | 128 | 128 | 32 | lowest | relatively weak | 16 | 8 | 128 | 64 | 128 | 64 | 356.0 | 375 | 32 | 16 | 128 | 64 | –
3 | H-FIPLVSGLFSKLL-NH2 [Temporin-FL, FIPLVSGLFSKLL-NH2] | 128 | 128 | 64 | 32 | moderate permeabilizing activity | relatively weak | 16 | 16 | 64 | 32 | 64 | 32 | 157.4 | 83.4 | 64 | 32 | 32 | 32 | MICs against tested Gram-positive bacterial strains and fungi [4]: 16 to 32 µM; Activity against Gram-negative bacteria E. coli (in words) (E. coli (NCTC 10418); E. coli): inactive; Biofilm formation ([5]; MRSA ATCC 43300, peptide at 1/2× MBIC): ++ (the moderate biofilm formation (++) represented the 2 × ODc < OD595nm ≤ 4 × ODc); Biofilm formation ([5]; MRSA ATCC 43300, peptide at 1/4× MBIC): ++ (the moderate biofilm formation (++) represented the 2 × ODc < OD595nm ≤ 4 × ODc); Helix in NH4Ac ([6]; 10 mM NH4Ac): 16.7%; Helix in 50%TFE/NH4Ac ([6]; 10 mM NH4Ac with 50% TFE): 92.3%; Biofilm disruption observed by SEM [7]: moderate bacterial colonies reduction
